Entries after “also recorded” stand apart in the source; their conditions may differ.
Experiments:
[1] = system: high fat diet induced C57BL/6J mice; test: Intraperitoneal insulin tolerance test, UP780 dose-range study; format: in vivo, mouse; conditions: after 10 weeks of daily oral treatment; P≦0.05
Method: (§1) Once an induction of the disease on animals after 8 weeks of high fat diets was confirmed by monitoring of selected parameters, daily oral treatment was initiated. On each day, the test articles and the positive control GW1929 (Tocris Bioscience, Ellisville, Mo., Batch #2A/58705) were dissolved in 0.5% methylcellulose (Sigma, St. Louise Mo., Lot#116H0857) and delivered at an oral dose of 100, 200 and 400 mg/kg of UP780 (Lot # L1806QMAW-01); 400 mg/kg of Qmatrix® Aloe vera gel powder (QM400, Lot# G6319103-L3) as well as 5 mg/kg of GW1929. As GW1929 was not completely solublized in methylcellulose, it was first dissolved in DMSO (Sigma, St. Louis, Mo., Batch#064K0067). The final concentration of test compounds, including the vehicle, was then adjusted to contain 5% DMSO before drug administration. The carrier vehicle treated animals received 0.5% methylcellulose only. No detectable sign of irritation was observed after each drug or vehicle administration. […]
(§2) An intraperitoneal glucose tolerance test was conducted on day 0 (baseline), weeks 3, and 9 after onset of treatment. […] Blood glucose levels were determined at time 0 (before glucose injection), 30, 60, 90, and 120 minutes post glucose delivery. […] Blood glucose levels were determined at time 0 (before insulin injection), 30, 60, 90, and 120 minutes after insulin administration. […]

db/db mice [2] = test: Weekly fasting triglyceride levels in db/db mice; format: in vivo, mouse; conditions: after 10 weeks of treatment, P<0.05
Method: Weekly fasting triglyceride levels of male db/db mice treated with GW1929 (5 mg/kg), N-931 (375 mg/kg) and vehicle were taken for 10 weeks. Animals were provided with T2018 rodent diet ad libitum except when fasting. Animals were fasted overnight before measurements were taken. The values indicated are percent triglyceride levels of vehicle, n=8.

[3] = system: high fat diet induced C57BL/6J mice; test: Fasting triglyceride, UP780 dose-range study; format: in vivo, mouse; conditions: after 7 weeks of daily oral treatment; GW1929 5 mg/kg
Method: (§3) Once an induction of the disease on animals after 8 weeks of high fat diets was confirmed by monitoring of selected parameters, daily oral treatment was initiated. On each day, the test articles and the positive control GW1929 (Tocris Bioscience, Ellisville, Mo., Batch #2A/58705) were dissolved in 0.5% methylcellulose (Sigma, St. Louise Mo., Lot#116H0857) and delivered at an oral dose of 100, 200 and 400 mg/kg of UP780 (Lot # L1806QMAW-01); 400 mg/kg of Qmatrix® Aloe vera gel powder (QM400, Lot# G6319103-L3) as well as 5 mg/kg of GW1929. As GW1929 was not completely solublized in methylcellulose, it was first dissolved in DMSO (Sigma, St. Louis, Mo., Batch#064K0067). The final concentration of test compounds, including the vehicle, was then adjusted to contain 5% DMSO before drug administration. The carrier vehicle treated animals received 0.5% methylcellulose only. No detectable sign of irritation was observed after each drug or vehicle administration.
(§4) As described on Example 12, male C57BL/6J mice were purchased from Jackson Laboratories (Bar Harbor, Me.) at 6 weeks of age. […]
(§5) Fasting blood glucose, total cholesterol and triglyceride levels were measured using 15-20 μl of blood obtained from tail vein. […]

[4] = system: high fat diet induced C57BL/6J mice; test: Fasting blood glucose, UP780 dose-range study; format: in vivo, mouse; conditions: weeks 5 and 7; UP780 200 mg/kg, GW1929 5 mg/kg
Method: as §3, §4, §5

diabetic animal models = conditions: administered orally; Brown et al. (1999), Way et al. (2001); cited from earlier work
[5] = system: high fat diet induced C57BL/6J mice; test: Intraperitoneal glucose tolerance test, UP780 dose-range study; format: in vivo, mouse; conditions: week 3 of daily oral treatment; 30, 60 and 90 minutes; UP780 200 mg/kg, GW1929 5 mg/kg
Method: as §1, §2

[6] = Body weight, UP780 dose-range study; format: in vivo, mouse; conditions: GW1929 5 mg/kg, Qmatrix 400 mg/kg, UP780 100, 200 and 400 mg/kg; weekly
Method: as §3, §4
Three or four male C57BL/6J mice were housed in a mouse cage that had sections for feed and water. Feed intake was determined daily by measuring the difference between previously weighed high fat pellets value and what was left on the given day. […]

db/db mice [7] = test: Weekly fasting glucose levels in db/db mice; format: in vivo, mouse; conditions: GW1929 5 mg/kg, N931 375 mg/kg
Method: Fasting glucose levels of male db/db mice (8 mice in each group) treated with GW1929 (5 mg/kg), N931 (375 mg/kg) and vehicle were measured weekly. Animals were provided with T2018 rodent diet ad libitum except when fasting. Animals were fasted overnight before measurements were taken.

CN(CCOc1ccc(C[C@H](Nc2ccccc2C(=O)c2ccccc2)C(=O)O)cc1)c1ccccn1 [GW1929, N-(2-Benzoylphenyl)-O-[2-(methyl-2-pyridinylamino)ethyl]-L-tyrosine]
significant differences in intraperitoneal insulin tolerance test vs vehicle [1]: after 1 hour insulin injection | fasting triglyceride levels compared to vehicle (db/db mice [2]): significant reduction in triglyceride levels | reduction of triglycerides (db/db mice [2]; N931 375 mg/kg, GW1929 5 mg/kg): 43% | percent reduction of fasting triglyceride level to vehicle [3]: 22.7% | fasting glucose level compared to vehicle [4]: statistically significant lower fasting glucose level | glucose, fatty acids and triglyceride levels (diabetic animal models): decreases glucose, fatty acids and triglyceride levels | glucose clearance in intraperitoneal glucose tolerance test vs vehicle [5]: statistically significant glucose clearance | body weight gain difference between groups [6]: no significant body weight gain or feed consumption differences; also recorded: No statistically significant body weight gain difference | course of fasting glucose level during 10-week treatment (db/db mice [7]; starting from week 5): maintain the glucose levels at the baseline level | fasting blood glucose levels compared to vehicle (db/db mice [7]; weeks 6, 7, 9 and 10, P<0.05): significantly lower

— US8852657B2, “Chromones as therapeutic agents” (Unigen, Inc., priority 2007, dated 2014)
